The record followed here is patent publication US12534748B2, “Engineered beta-subunit of tryptophan synthase for production of non-canonical amino acids” (California Institute of Technology, priority 2015, dated 2026).

The assay deals with T1, PfTrpB^2B9 (Pyrococcus furiosus, UniProt Q8U093, E17G/F274S/F95L/I16V/I68V/T292S/T321A/V384A).
T1 construct: made in house; host or cells: E. coli BL21 E. cloni Express
Nature of the assay: TTN of β-substitution reaction with L-Thr with different nucleophiles. The following applies: for TTN: LC-MS. It counts as biochemical. Here is the method:
Total Turnover Number (TTN) determination. Measurements were made using HPLC and LC-MS instruments. The amount of Trp formed was measured at 280 nm using a standard curve with trichlorobenzene as internal standard. […] This method is insensitive to loading volume and results agreed with measurements using a standard curve. […] This same technique was used to determine the TTN of the PfTrpB^2B9 reaction with different nucleophiles. […] Reactions were set up in triplicate using a total volume of 150 μL with 25 mM nucleophile and 250 mM L-Thr in 200 mM potassium phosphate pH 8.0 in borosilicate glass vials, as plastics can absorb indoles at high temperatures. Before addition of enzyme, all reagents were transferred into a Coy anaerobic chamber with <1 ppm O2 to rapidly exchange the atmosphere in the headspace of the vials to 95/5% N2/H2, which limits competing non-catalytic oxidation of indoles. Enzyme was added in the anaerobic environment with varied catalyst loading to ensure a robust product signal in subsequent analysis. Reaction vessels were capped before being removed from the anaerobic chamber and incubated in a 75° C. water bath for 24 hours. Reactions were quenched the next day by addition of 1 volume (150 μL) of 100% ACN, mixing, and allowing to rest at room temperature for 10 min. Quenched solutions were then diluted 5-fold with 40% ACN in water and analyzed via LC-MS. In all cases, auxiliary peaks that would indicate non-catalytic degradation of substrate were present at only low levels, contributing to <1% of the total integration signal for a given wavelength. For 7-azaindole, a second peak with m/z=220 was observed that was also found in larger scale reactions and whose properties are consistent with an N-alkylated product.
With these reaction conditions in hand, a characterization of the substrate scope of the reaction with Thr was performed. A small panel of indole-like nucleophiles were screened for reaction with PfTrpB^0B2 and Ser, and a significant boosts in activity was observed. This was expanded on this panel of nucleophiles and tests for activity with PfTrpB^2B9 using an excess of Thr was performed. Reactions were run to intermediate yield to determine the TTN with a given nucleophile and the identity of the products was established with a separate preparative-scale reaction using 100 mM nucleophile, 1.0 M Thr, and 0.02-0.25 mol % PfTrpB^2B9 catalyst. […] To probe the role of electronic effects on the C—C bond forming step, activity was tested with 4-fluoro and 5-fluoroindole, which are more closely isosteric with indole but have decreased electron density in the π-system. Product formation with each substrate and 3.4-fold decreased TTN with the 4-fluoro substrate was observed, which is more electron withdrawing at C-3 than the 5-fluoro substituent. The increased steric constraints of the activity site were again clear, as no activity with the 5-chloro-, 5-bromo, and 6-hydroxyindoles, which undergo reaction with Ser, was observed. […] This regioselectivity is well known with the indazole, which we found reacts exclusively to form the N-alkylated product. […] Inclusion of DTT reduced this side reaction.

The mark [1] stands for this setting: 25 mM nucleophile, 250 mM L-Thr, 24 hour reaction at 75° C.

T1 sequence (Q8U093 other isoform, or with tags, fused parts or gaps I16V/E17G/I68V/F95L/F274S/T292S/T321A/V384A): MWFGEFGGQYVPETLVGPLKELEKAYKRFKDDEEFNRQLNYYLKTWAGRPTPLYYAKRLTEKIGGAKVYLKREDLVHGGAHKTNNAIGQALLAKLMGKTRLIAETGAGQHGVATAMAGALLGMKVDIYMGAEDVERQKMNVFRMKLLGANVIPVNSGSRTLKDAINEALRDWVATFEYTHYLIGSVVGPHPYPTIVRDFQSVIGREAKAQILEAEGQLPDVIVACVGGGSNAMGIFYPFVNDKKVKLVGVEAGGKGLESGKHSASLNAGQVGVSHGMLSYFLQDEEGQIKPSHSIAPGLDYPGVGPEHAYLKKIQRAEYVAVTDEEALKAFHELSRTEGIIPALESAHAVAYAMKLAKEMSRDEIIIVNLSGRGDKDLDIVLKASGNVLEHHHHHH

In the case of `Cc1cc2ccccc2[nH]1` [2-Methylindole], the “reactivity of nucleophile with PfTrpB^2B9 and excess Thr” value (shortened to “reactivity of nucleophile”) is “Good reactivity”. This compound also yielded a TTN under setting [1] of 6400 ± 1400.
As for `SCc1ccccc1` [benzyl mercaptan], the “reactivity of nucleophile” value is recorded as “low turnover”.
As to `c1ccc2[nH]ncc2c1` [Indazole], the TTN under setting [1] came to 500 ± 40.
Regarding `Fc1cccc2[nH]ccc12` [4-Fluoroindole], the TTN under setting [1] worked out at 378 ± 8. The “decrease of TTN” value (4-fluoro versus 5-fluoro substrate) is 3.4 fold.
For `c1ccc2c(c1)CCN2` [indoline], the “reactivity of nucleophile” value was “no product formation”.
Under setting [1], `c1ccc2[nH]ccc2c1` [Indole] showed a TTN of 8200 ± 1600.
For `Cc1ccc2cc[nH]c2c1` [6-Methylindole], the “reactivity of nucleophile” value is on record as “Good reactivity”. Further, under setting [1], the TTN is on record as 1100 ± 100.
Take `c1cnc2[nH]ccc2c1` [7-Azaindole]: under setting [1], the “TTN, C-alkylation” value is “C-alkylation-220 ± 40” and the “TTN, N-alkylation” value was “N-alkylation-32 ± 3”.
For `Fc1ccc2[nH]ccc2c1` [5-Fluoroindole], under setting [1], the TTN is on record as 1300 ± 280.
In the case of `Sc1ccccc1` [thiophenol], the “reactivity of nucleophile” value is given as “low turnover”.
